Experimental data: US8173764B2, “Solubilization and targeted delivery of drugs with self-assembling amphiphilic polymers” (AllExcel Inc., priority 2006, dated 2012)
Converted amounts (≈) assume the structure as drawn. Where two headings read alike, the source gives them in different places.

Key:
[1] = Description: (§1) The container bottoms were then attached to the bottom of a small jewelry ultrasonic cleaner bath using a water-resistant double-stick tape. Just enough water was added to the bath to immerse the weigh boats to about ⅓rd height. Sonication was performed for 15 minutes in steps of 5 minutes. The liquids were transferred to centrifuge tubes and centrifuged twice for 30 min. in a bench top centrifuge to pellet out undissolved dye. The supernatants were transferred to clean tubes and centrifuged again, to remove entrained solids. Suspensions of same amounts of dyes in same amount of distilled water as the amount of the polymer solution were treated in the same fashion, as controls. The resulting solutions were spotted (25 ul) on TLC plates to form circles from the drops. The intensities of the spots were compared with spots made from standards of dye solutions made in ethanol or ethanol/water to determine approximate concentrations; the spots are shown in FIG. 1. The solubilities of the dyes in water were determined by dissolving appropriate amount of the dye in […] deionized water (unbuffered) at room temperature, and adding (i.e. titrating with) further water as necessary to obtain saturated solutions.
[2] = physchem
Description: as §1

In the case of `O=C1OC2(c3cc(Cl)c(O)cc3Oc3cc(O)c(Cl)cc32)c2ccccc21` [Dichlorofluorescein, dichlorofluorescein], the “concentration of dye in 50 mg/ml polymer” value ([1]; 15 min) is reported as “approximately 5 mg/ml” and the solubility ([2]; water, thermodynamic from solid) is reported as 10 µg/mL (≈ 24.9 µM).
With `Cc1ccccc1/N=N/c1ccc(/N=N/c2c(O)ccc3ccccc23)c(C)c1` [Sudan IV] the “concentration of dye in 50 mg/ml polymer” value [1] was “approximately 0.2 mg/ml” and the “concentration (solubility) of dye in H2O” value [2] was 0.000 mg/mL.
